In patent US20190352638A1, “THERAPEUTIC MODULATION OF C-FOS IN THE EYE” (Children's Medical Center Corporation, priority 2016, published 2019):

Tests used:
Vldlr^−/− mice = assay: Neovascularization analysis (lesion number and size) in Vldlr^−/− retina whole mounts; format: in vivo, mouse
Procedure: (§1) All animal studies were performed according to protocols approved by the Institutional Animal Care and Use Committee at the Boston Children's Hospital. Vldlr^+/− (heterozygous) mice from Jackson Laboratory (Stock #002529) were bred to generate homozygous and wild type littermates. SR11302 (TOCRIS, Cat. 2476) was dissolved in corn oil. Vldlr^−/− pups were orally gavaged with SR11302 or corn oil as control at a dose of 1 mg/kg body weight daily from P5 to P15. P16 retinas were collected for PCR and neovascularization analysis.
Vldlr^−/− and wild type retina whole mounts were stained with isolectin IB4 and imaged with AxioObserver Z1 microscope (Zeiss) with a monochrome digital camera (AxioCam MRm; Zeiss) focusing on the terminal end of lesions on the RPE layer (usually at P16), and individual images were merged to create one retinal image using the automated merge function (mosaiX; Zeiss) in the software (AxioVision 4.6.3.0; Zeiss). Image J was used for quantification of subretinal neovascularization lesion number and areas in Vldlr^−/− retinas (National Institutes of Health, imagej.nih.gov/ij/) with designed plugins adapted from the method used to measure retinal neovascularization (SWIFT_NV) in the OIR model (Stahl, A. et al., Angiogenesis 12, 297-301 (2009)) which use a user-designated threshold to mark lesion structures that clearly stand out from background fluorescence of normal vessels, and can automatically remove small artifacts by selecting objects with a minimum size of 100 pixels. Other larger artifacts such as occasional cellular debris or retinal periphery with hyperfluorescence can be manually excluded from quantification. Lesion numbers and areas were quantified with researchers masked to the identity of samples.
At P16, mice were anesthetized, the eyes were enucleated and fixed in 4% paraformaldehyde followed by dissection and staining of the retinas with fluoresceinated isolectin IB4 (Invitrogen) to visualize subretinal neovascularization in whole mounted retinas. 3D reconstructed images were taken with confocal microscopy (Leica TCS SP2 AOBS) and z-stacks were 3D reconstructed using Volocity software (Perkin Elmer).
Subretinal injection into P0 neonate eyes was performed as previously described (Matsuda, T., et al., Proc. Nat. Acad. Sci. USA 101, 16-22 (2004), and Wang, S., et al., Developmental cell 30, 513-527 (2014)) under a dissection microscope. P0 Vldlr^−/− or wild type pups were anesthetized on ice for several minutes. The eyelid was prepped with Betadine, followed by water, then 70% ethanol using cotton swabs. A blade was used to gently cut open the eyelid. The injection needle was inserted into the eyeball through the incision until slight resistance was felt. Approximately 0.5 μl solution containing siRNA/siControl or AAV2/Control (10^12-10^13 gc/ml) was introduced into the subretinal space using a pulled angled glass pipette controlled by a FemtoJet (Eppendorf). The left eyes were uninjected for within-animal controls. Curved forceps were used to slowly close the eyelid. Mice were placed on a circulating water blanket for warmth. The retinas were collected at P12 for PCR assay and P16 for whole mount analysis.

[1] = system: c-fos and its target genes (Mmp10, Il6, IlIb and Tnf); assay: Quantitative RT-PCR of retinal mRNA; format: in vivo, mouse; conditions: oral gavage 1 mg/kg daily P5 to P15; Vldlr^−/− retinas
Procedure: as §1
Total RNA was extracted from mouse retinas using RNeasy kit (Qiagen) and reverse-transcribed with SuperScript® III Reverse Transcriptase (Thermo Fisher) to generate cDNA. Quantitative PCR was performed using a 7300 system (Applied Biosystems) with KAPA SYBR FAST qPCR Kits (Kapa Biosystems) using Rhodopsin, Pecam, Vldlr, CD68, CD11b, CD45, c-Fos, Il6, Il11b, Tnf, mmp10, Socs3, uPA, c-Jun, VEGF120, VEGF164, VEGF188 primers.
Subretinal injection into P0 neonate eyes was performed as previously described (Matsuda, T., et al., Proc. Nat. Acad. Sci. USA 101, 16-22 (2004), and Wang, S., et al., Developmental cell 30, 513-527 (2014)) under a dissection microscope. P0 Vldlr^−/− or wild type pups were anesthetized on ice for several minutes. The eyelid was prepped with Betadine, followed by water, then 70% ethanol using cotton swabs. […]

AP-1 = conditions: without activating transcription of retinoic acid response element; Fanjul et al. 1994; cited from earlier work
[2] = oral gavage 1 mg/kg daily P5 to P15, Vldlr^−/− mice
[3] = oral gavage, Vldlr^−/− retinas vs controls

## CC1=C(/C=C/C(=C/C=C/C(C)=C/C(=O)O)c2ccc(C)cc2)C(C)(C)CCC1 [SR11302, (E,E,Z,E)-3-Methyl-7-(4-methylphenyl)-9-(2,6,6-trimethyl-1-cyclohexen-1-yl)-2,4,6,8-nonatetraenoic acid]
Vldlr^−/− mice; [2]
  lesion size decreased: 40%
  total lesion number reduced: 48%
Vldlr^−/− mice; [3]
  neovascularization (in words): inhibited
  total lesion number (in words): reduced
  total lesion size (in words): reduced
[1]
  c-FOS target genes (Il6, IlIb and Tnf) mRNA: reduced
  c-fos expression itself: without influencing
AP-1
  AP-1 activity: specifically inhibits
